Data as given in the NIST ThermoML archive (doi:10.1021/je800757j).
± gives the expanded uncertainty stated by the source.

Settings: Liquid

| vapor or sublimation pressure (353.15 K) | vapor or sublimation pressure (373.15 K) | vapor or sublimation pressure (393.15 K) | vapor or sublimation pressure (413.15 K) | vapor or sublimation pressure (433.15 K) | vapor or sublimation pressure (453.15 K) | vapor or sublimation pressure (423.15 K) | vapor or sublimation pressure (443.15 K) | Structure (SMILES) |
| --- | --- | --- | --- | --- | --- | --- | --- | --- |
| 1039 ± 27 kPa | 1586 ± 39 kPa | 2265 ± 56 kPa | 3156 ± 78 kPa |  |  |  |  | CCCC [butane] |
|  |  | 410 ± 17 kPa | 633 ± 20 kPa | 918 ± 25 kPa | 1301 ± 33 kPa |  |  | CCCCCC [hexane] |
|  | 600 ± 20 kPa |  |  |  |  | 1620 ± 40 kPa |  | CCCCC [pentane] |
|  |  |  |  | 477 ± 18 kPa | 703 ± 21 kPa |  | 587 ± 19 kPa | CCCCCCC [heptane] |
